{"source": "paper PMC2365028", "about": "“Transepithelial Transport and Metabolism of Boronated Dipeptides Across Caco-2 and HCT-8 Cell Monolayers” (Metal-Based Drugs, 1996)", "key": {"[1]": {"test": "Stability in HBSS/HEPES buffer and apical/basal media without the Transwell system", "assay_type": "physicochemical", "conditions": "HBSS/HEPES buffer pH 7.4, 37C, or apical and basal media"}, "Caco-2 cell monolayers": {"test_system": "Caco-2 cell monolayers", "test": "Apical-to-basal transport and metabolism across Caco-2 cell monolayers (Transwell)", "conditions": "for % Mass Balance / % Mass Transported / % Mass in Apical Side / Mass Transported (collected in the basal medium after 4 hours): Table 5; for Mass Transported (collected in the basal medium after 4 hours): initial concentration figure not printed (mM); for % Ester in the basal compartment / % FA (corresponding free acid) in the basal compartment: Table 9, side-by-side experiment", "source_text": "TRANSEPITHELIAL TRANSPORT AND METABOLISM OF BORONATED DIPEPTIDES ACROSS CACO-2 AND HCT-8 CELL MONOLAYERS Amy L. Elkins,John G. Eley,3, Merrill C. […] This study examined the effect of boronation on the transepithelial transport and metabolism of three glycine-phenylalanine dipeptides in Caco-2 and HCT-8 cell monolayers. […] Oral delivery of proteins and peptides as therapeutic agents is problematic due to their low bioavailability. This is mainly due to both their poor permeability across cellular barriers and to enzymatic degradation that occurs in the gut lumen, brush border, and enterocyte cytoplasm (2). […] Such as a substitution may also have the potential to alter the in vivo bioavailability of dipeptides. […] This study was undertaken to determine the effect of boronation on the transepithelial transport and metabolism of three glycine-phenylalanine dipeptides. […] Caco-2 cells are human colon adenocarcinoma cells first isolated from a primary colonic tumor (4). The cell line undergoes spontaneous enterortic differentiation in culture after reaching cotfflucnce, and morphologically resembles small intestinal epitheliun after three xveeks in culture (5). These morphological characteristics include the development of a brush border region expressing microvilli, occluding junctions, dome formations, and the formation of tight junctions leading to cell polarity. […] The cell line expresses a dipeptide carrier transport system in both the apical and basal membranes (9-10). […] HCT-8 cells are human adenocarcinoma cells from the ileocecal region; as such, these cells may give a truer reflection of gut absorption compared to Caco-2 cells which are derived from the colonic region. The cells produce a polarized differentiated monolayer consisting of enterocyte-like columnar cells that are interconnected by mature tightjunctions and desmosomes and exposed microvilla (11). The structural and functional integrity of the tight junctions of cells grown on polyester filter cups (Falcon, BD) and membrane filter inserts (Transwell(R), Costar) have been confirmed by transmission electron microscopy, transepithelial electrical resistance measurements, and transport of impermeant markers such as mannitol and polyethylene glycol (11, 12). […] Compound//was donated by Boron Biologicals, Inc., Raleigh, NC. Compound 111 was synthesized as follows: L-phenylalanine methyl ester hydrochloride (2.09 g, 9.7 mmol) and dimethylglycine (1 g, 9.7 retool) xvere suspended in 30 ml dry tetrahydrofuran with 10 mmol of triethylamine, dicyclohexyl-carbodiinfide and hydrox3'benzotriazole. The reaction was stirred at room temperature for 48 hours under nitrogen and the solvent was removed under reduced pressure. The product was purified on silica gel, two void volumes of hexane, two void volumes hexane/ethanol (8'1), and then hexane/ethanol (5:1). […] For the transport studies, cells were diluted with growth medium to give a total of […] cells/cm in 1.5 mls. The 1.5 ntis was placed in the apical compartment of a Transwcll(R) (Costar). The Transxvell(R) system is a 6-well plate with each well having an apical compartment capacity of 1.5 ntis, a basal compartment capacity of 2.5 ntis, and a 4.71 cm polycarbonate microporous (0.45 gin) membrane separating the two compartments. Cell monolayers in the Transwell(R) were allowed to grow for 21 days while the medium was replaced every 3 days. The cells were grown in Dulbecco's Modified Eagle Medium (D-MEM) containing L-glutamine and sodium pyruvate at 37C under 5% CO-. and saturated humidity. Additives to the medium included 10% heat- inactivated fetal bovine serum, 10 mM nonessential amino acids, 100 units of penicillin and […] of streptomycin per ml of medium. 278 A.L. Elkins, J.G. Eley, M.C."}, "in vitro": {"test": "in vitro", "conditions": "human, Caco-2", "source_text": "TRANSEPITHELIAL TRANSPORT AND METABOLISM OF BORONATED DIPEPTIDES ACROSS CACO-2 AND HCT-8 CELL MONOLAYERS Amy L. Elkins,John G. Eley,3, Merrill C. […] This study examined the effect of boronation on the transepithelial transport and metabolism of three glycine-phenylalanine dipeptides in Caco-2 and HCT-8 cell monolayers. […] Oral delivery of proteins and peptides as therapeutic agents is problematic due to their low bioavailability. This is mainly due to both their poor permeability across cellular barriers and to enzymatic degradation that occurs in the gut lumen, brush border, and enterocyte cytoplasm (2). […] Such as a substitution may also have the potential to alter the in vivo bioavailability of dipeptides. […] This study was undertaken to determine the effect of boronation on the transepithelial transport and metabolism of three glycine-phenylalanine dipeptides. […] Caco-2 cells are human colon adenocarcinoma cells first isolated from a primary colonic tumor (4). The cell line undergoes spontaneous enterortic differentiation in culture after reaching cotfflucnce, and morphologically resembles small intestinal epitheliun after three xveeks in culture (5). These morphological characteristics include the development of a brush border region expressing microvilli, occluding junctions, dome formations, and the formation of tight junctions leading to cell polarity. […]"}}, "note": "“And” between values parts separate entries of the source, which are not always exact repeats. Equal entries are not always repeated."}
{"smiles": "COC(=O)[C@H](Cc1ccccc1)NC(=O)[BH2-][NH+](C)C", "note": "[Compound II, N-[(dimethylamine-boryl)-carbonyl]-L-phenylalanine methyl ester]", "values": [{"measurement": "% of the original ester at 25 hours", "setting": "[1]", "value": 90, "unit": "%"}, {"measurement": "% Mass Balance", "setting": "Caco-2 cell monolayers; 4 h, 4C Rocking", "value": 81.8, "unit": "%"}, {"measurement": "% Mass Transported", "setting": "Caco-2 cell monolayers; 4 h, 4C Rocking", "value": 37.3, "unit": "%"}, {"measurement": "% Mass in Apical Side", "setting": "Caco-2 cell monolayers; 4 h, 4C Rocking", "value": 44.5, "unit": "%"}, {"measurement": "% Mass Balance", "setting": "Caco-2 cell monolayers; 4 h, 4C Static", "value": 79.9, "unit": "%"}, {"measurement": "% Mass Transported", "setting": "Caco-2 cell monolayers; 4 h, 4C Static", "value": 39.3, "unit": "%"}, {"measurement": "% Mass in Apical Side", "setting": "Caco-2 cell monolayers; 4 h, 4C Static", "value": 40.6, "unit": "%"}, {"measurement": "% Mass Balance", "setting": "Caco-2 cell monolayers; 4 h, 37C Static", "value": 57.7, "unit": "%"}, {"measurement": "% Mass Transported", "setting": "Caco-2 cell monolayers; 4 h, 37C Static", "value": 52.7, "unit": "%"}, {"measurement": "% Mass in Apical Side", "setting": "Caco-2 cell monolayers; 4 h, 37C Static", "value": 5.0, "unit": "%"}, {"measurement": "Mass Transported (collected in the basal medium after 4 hours)", "setting": "Caco-2 cell monolayers; 4C Rocking", "value": 0.56}, {"measurement": "Mass Transported (collected in the basal medium after 4 hours)", "setting": "Caco-2 cell monolayers; 4C Static", "value": 0.59}, {"measurement": "Mass Transported (collected in the basal medium after 4 hours)", "setting": "Caco-2 cell monolayers; 37C Static", "value": 0.79}, {"measurement": "Apparent permeability coefficient Pe + SD", "setting": "Caco-2 cell monolayers; Table 6, 4 h, 37C Rocking", "value": 48, "unit": "×10⁻⁶ cm/s"}, {"measurement": "Pseudo first-order rate constant k + SD", "setting": "Caco-2 cell monolayers; Table 6, 4 h, 37C Rocking", "value": "2.8 + 0.22 x 104/sec"}, {"measurement": "% Ester in the basal compartment", "setting": "Caco-2 cell monolayers; 4 h, 4C Rocking", "value": 55.5, "unit": "%"}, {"measurement": "% FA (corresponding free acid) in the basal compartment", "setting": "Caco-2 cell monolayers; 4 h, 4C Rocking", "value": "inhibited"}, {"measurement": "% Ester in the basal compartment", "setting": "Caco-2 cell monolayers; 4 h, 4C Static", "value": 59.4, "unit": "%"}, {"measurement": "% FA (corresponding free acid) in the basal compartment", "setting": "Caco-2 cell monolayers; 4 h, 4C Static", "value": "inhibited"}, {"measurement": "% Ester in the basal compartment", "setting": "Caco-2 cell monolayers; 4 h, 37C Static", "value": "48.6% and 49%"}, {"measurement": "% FA (corresponding free acid) in the basal compartment", "setting": "Caco-2 cell monolayers; 4 h, 37C Static", "value": "51.5% and 52%"}, {"measurement": "mode of transport across the monolayer", "setting": "Caco-2 cell monolayers; apical-to-basal", "value": "passive diffusion"}, {"measurement": "compound recovered after transport through Caco-2 cell monolayers", "setting": "Caco-2 cell monolayers; apical-to-basal, 4 hours", "value": 58, "unit": "%"}, {"measurement": "recovery after quantitating the free acids at the conclusion of transport experiments", "setting": "Caco-2 cell monolayers; ester plus free acid", "value": 100, "unit": "%"}]}
{"smiles": "CCCOC(=O)c1ccc(O)cc1", "note": "[Propyl paraben, reference compound]", "values": [{"measurement": "mode of transport across the monolayer", "setting": "Caco-2 cell monolayers; Caco-2", "value": "passive diffusion"}, {"measurement": "compound recovered after transport through Caco-2 cell monolayers", "setting": "Caco-2 cell monolayers; human, Caco-2, 4 h", "value": 100, "unit": "%"}, {"measurement": "recovery", "setting": "in vitro", "value": 100, "unit": "%"}]}
